Here are results for 29 compounds from US8722681B2, “N-sulfonyl thiazolylpiperazine derivatives and related N-sulfonyl heterocyclic derivatives for the treatment of neuro degenerative diseases” (NV reMYND, priority 2007, dated 2014).

The term EC50 denotes the concentration needed to bring the measured effect to its halfway point.

This experiment has as its system M17-SYNwt cells. Briefly: α-synuclein cytotoxicity assay (LDH leakage from paraquat-treated M17-SYNwt cells). In kind it is cell-based, human. The note with it: for EC50: Homo sapiens, M17-SYNwt cells, paraquat 32 mM, 40 hours, LDH activity; for % I (percentage inhibition) / % inh. (percentage inhibition): inhibition of synuclein toxicity at most effective concentration relative to untreated paraquat cells. The source says:
An α-synuclein expression plasmid was constructed by sub-cloning the NcoI/XhoI fragment from 212T-SYN(WT) (Griffioen et al., Biochem Biophys Acta (2006) 1762(3):312-318) containing the cDNA of human wild type α-synuclein correspondingly into a standard mammalian expression vector pcDNA3.1 resulting in plasmid pcDNA3.1-SYNwt. Plasmid pcDNA3.1 and pcDNA3.1-SYNwt were transfected to human neuroblastoma cells (ATCC No. CRL-2267) and independent clonal lines with the plasmids stably integrated into the genome were selected. […] Over-expression of α-synuclein in M17-SYNwt cell lines was confirmed by Western analysis.
Due to the high levels of α-synuclein M17-SYNwt cells are exquisitely sensitivity to paraquat, a well-known risk factor of synuclein-dependent neuronal degeneration. In degenerated or dead cells lactate dehydrogenase (LDH) is leaked out of the cells into the extracellular environment due to a loss of plasma-membrane integrity. This principle was used to determine cytotoxicity by quantifying the level of leaked LDH into the growth medium.
The detailed method for determining α-synuclein cytotoxicity was as follows: From appropriate precultures of M17 and M17-SYN cells were seeded at 50000 cells/cm^2 in Optimem Reduced Serum without phenol red (InVitrogen, Cat. 31985-047) supplemented with 5% fetal calf serum, 1 mM sodium pyruvate, 1×non-essential amino acids, 500 μg/ml G418 0.5×antibiotic/antimycotic. After 3 hours of incubation at 37° C./5% CO2 paraquat was added to the cells (final concentration of 32 mM), together with the test compound and the cells were further incubated for 40 hours. Subsequently, LDH activity was determined using Promega Cytotox 96 Non-Radioactive cytotoxicity assay, (Cat. G1780) according the supplier's instructions.
This α-synuclein expressing neuroblastoma cells made it possible to assess the ability of novel compounds to counteract α-synuclein cytotoxicity. […] Since this method monitors leaked LDH from degenerated or dead cells only non-toxic compounds will be identified as active inhibitors of α-synuclein-mediated cytotoxicity. Lack of toxicity is an important characteristic for compounds to be used as a medicament to patients in need. A compound was considered to be active in this test when it inhibits α-synuclein cytotoxicity by more than 25% relative to untreated M17-SYNwt cells at a concentration of 20 μg/mL or lower. In the experiments, the control group consisted of M17-SYNwt cells treated with DMSO, the untreated paraquat group consisted of M17-SYNwt cells treated with paraquat and DMSO, and the treated paraquat group consisted of M17-SYNwt cells treated with paraquat and the test compound dissolved in DMSO.
Percent inhibition was calculated as the synuclein toxicity inhibition by the compound in treated paraquat cells, relative to the synuclein cytotoxicity in untreated paraquat cells.
The compounds from table 1 were screened for activity using the α-synuclein cytotoxicity assay as described above. Dose responses were carried out on all compounds found to be active (10 point curves in duplicate).
(LDH leaks from cells whose membrane has failed.)

For `COc1ccc(S(=O)(=O)N2CCN(c3nc(-c4ccc(F)cc4)cs3)CC2)cc1` [Compound 1, 1-[4-(4-fluorophenyl)-1,3-thiazol-2-yl]-4-[(4-methoxyphenyl)-sulfonyl]-piperazine], where the note is “Table 1”, the EC50 stood at 24 nM and the “% I (percentage inhibition)” value is 100%.
Taken in the same sequence, the figures for `Cc1ccc(S(=O)(=O)N2CCN(c3nc(-c4ccc(F)cc4)cs3)CC2)cc1` [Compound 2] were 160 nM and 70%.
With `CCCc1sc(N2CCN(S(=O)(=O)c3ccc(C)cc3)CC2)nc1-c1ccccc1` [Compound 4], for the setting “Table 1”, the EC50 was 203 nM and the “% I (percentage inhibition)” value turned out to be 61%.
With `COc1cccc(-c2csc(N3CCN(S(=O)(=O)c4ccc(F)cc4)CC3)n2)c1` [Compound 5], where the note is “Table 1”, it took 216 nM to reach a half-maximal effect (EC50) and the “% I (percentage inhibition)” value is listed as 90%.
Taken in the same sequence, the figures for `O=S(=O)(c1ccc(Cl)cc1)N1CCN(c2nc(-c3ccc(F)cc3)cs2)CC1` [Compound 6] were 300 nM and 88%.
Taken in the same sequence, the figures for `O=S(=O)(c1ccc(Br)cc1)N1CCN(c2nc(-c3ccc(F)cc3)cs2)CC1` [Compound 7] were 327 nM and 94%.
Taken in the same sequence, the figures for `O=S(=O)(C1CCCCC1Br)N1CCN(c2nc(-c3ccc(F)cc3)cs2)CC1` (stereo not shown) [Compound 8] were 568 nM and 88%.
For `O=S(=O)(c1ccc(F)cc1)N1CCN(c2nc(-c3ccc(F)cc3)cs2)CC1` [Compound 9], under “Table 1”, a half-maximal effect (EC50) was put at 833 nM and the “% I (percentage inhibition)” value stood at 81%.
On to `COc1ccc(S(=O)(=O)N2CCN(c3nc(Cc4cccs4)cs3)CC2)cc1` [Compound 10, 1-(4-methoxyphenylsulfonyl)-4-(4-(thiophen-2-ylmethyl)thiazol-2-yl)piperazine], for which, under “Table 2”, the EC50 amounted to 12 nM and the “% inh. (percentage inhibition)” value stood at 93%.
As for `COc1ccc(S(=O)(=O)N2CCN(c3nc(Cc4cccc(C#N)c4)cs3)CC2)cc1` [Compound 12, 3-((2-(4-(4-methoxyphenylsulfonyl)piperazin-1-yl)thiazol-4-yl)methyl)benzonitrile], where the note is “Table 2”, a half-maximal effect (EC50) was put at 3.2 nM and the “% inh. (percentage inhibition)” value is on record as 66%.
Taken in the same sequence, the figures for `COc1ccc(S(=O)(=O)N2CCN(c3nc(Cc4cccc(F)c4)cs3)CC2)cc1` [Compound 13, 1-(4-(3-fluorobenzyl)thiazol-2-yl)-4-(4-methoxyphenylsulfonyl)piperazine] were 11.5 nM and 92%.
`COc1ccc(Cc2csc(N3CCN(S(=O)(=O)c4ccc(OC)cc4)CC3)n2)cc1` [Compound 14, 1-(4-(4-methoxybenzyl)thiazol-2-yl)-4-(4-methoxyphenylsulfonyl)piperazine]: for the setting “Table 2”, it took 46.6 nM to reach a half-maximal effect (EC50) and the “% inh. (percentage inhibition)” value is 90%.
Taken in the same sequence, the figures for `COc1ccc(S(=O)(=O)N2CCN(c3nc(Cc4ccccc4OC)cs3)CC2)cc1` [Compound 15, 1-(4-(2-methoxybenzyl)thiazol-2-yl)-4-(4-methoxyphenylsulfonyl)piperazine] were 17 nM and 71%.
Taken in the same sequence, the figures for `COc1cccc(Cc2csc(N3CCN(S(=O)(=O)c4ccccc4OC)CC3)n2)c1` [Compound 16, 1-(4-(3-methoxybenzyl)thiazol-2-yl)-4-(2-methoxyphenylsulfonyl)piperazine] were 3590 nM and 76%.
Taken in the same sequence, the figures for `COc1cccc(Cc2csc(N3CCN(S(=O)(=O)c4cccc(OC)c4)CC3)n2)c1` [Compound 17, 1-(4-(3-methoxybenzyl)thiazol-2-yl)-4-(3-methoxyphenylsulfonyl)piperazine] were 4360 nM and 130%.
For the compound `COc1ccc(S(=O)(=O)N2CCN(c3nc(Cc4ccc5c(c4)OCO5)cs3)CC2)cc1` [Compound 18, 1-(4-(benzo[d][1,3]dioxol-5-ylmethyl)thiazol-2-yl)-4-(4-methoxyphenylsulfonyl)piperazine], under “Table 2”, the EC50 was determined as 22.8 nM and the “% inh. (percentage inhibition)” value is on record as 19%.
Taken in the same sequence, the figures for `COc1cccc(Cc2csc(N3CCN(S(=O)(=O)c4ccc5c(c4)OCO5)CC3)n2)c1` [Compound 19, 1-(4-(3-methoxybenzyl)thiazol-2-yl)-4-(benzo[d][1,3]dioxol-5-ylsulfonyl)piperazine] were 251 nM and 84%.
Taken in the same sequence, the figures for `COc1cccc(Cc2csc(N3CCN(S(=O)(=O)c4cccnc4)CC3)n2)c1` [Compound 20, 1-(4-(3-methoxybenzyl)thiazol-2-yl)-4-(pyridin-3-ylsulfonyl)piperazine] were 1720 nM and 76%.
Taken in the same sequence, the figures for `COc1cccc(Cc2csc(N3CCN(S(=O)(=O)c4ccccn4)CC3)n2)c1` [Compound 21, 1-(4-(3-methoxybenzyl)thiazol-2-yl)-4-(pyridin-2-ylsulfonyl)piperazine] were 2440 nM and 116%.
In the case of `COc1cccc(Cc2csc(N3CCN(S(=O)(=O)c4ccsc4)CC3)n2)c1` [Compound 22, 1-(4-(3-methoxybenzyl)thiazol-2-yl)-4-(thiophen-3-ylsulfonyl)piperazine], for the setting “Table 2”, the midpoint of the response, the EC50, lay at 1000 nM and the “% inh. (percentage inhibition)” value turned out to be 89%.
Taken in the same sequence, the figures for `COc1cccc(Cc2csc(N3CCN(S(=O)(=O)c4c(C)n[nH]c4C)CC3)n2)c1` [Compound 23, 1-(4-(3-methoxybenzyl)thiazol-2-yl)-4-(3,5-dimethyl-1H-pyrazol-4-ylsulfonyl)piperazine] were 1290 nM and 95%.
Taken in the same sequence, the figures for `COc1cccc(Cc2csc(N3CCN(S(=O)(=O)c4cccc5c4ccn5C)CC3)n2)c1` [Compound 24, 4-(4-(4-(3-methoxybenzyl)thiazol-2-yl)piperazin-1-ylsulfonyl)-1-methyl-1H-indole] were 1170 nM and 82%.
Taken in the same sequence, the figures for `COc1cccc(Cc2csc(N3CCN(S(=O)(=O)c4cn(C)cn4)CC3)n2)c1` [Compound 26, 1-(4-(3-methoxybenzyl)thiazol-2-yl)-4-(1-methyl-1H-imidazol-4-ylsulfonyl)piperazine] were 870 nM and 87%.
In the case of `COc1cccc(Cc2csc(N3CCN(S(=O)(=O)c4ccc(NC(C)=O)cc4)CC3)n2)c1` [Compound 27, N-(4-(4-(4-(3-methoxybenzyl)thiazol-2-yl)piperazin-1-ylsulfonyl)phenyl)acetamide], for the setting “Table 2”, a half-maximal effect (EC50) was put at 250 nM and the “% inh. (percentage inhibition)” value amounted to 91%.
Taken in the same sequence, the figures for `COc1cccc(Cc2csc(N3CCN(S(=O)(=O)c4ccc(C)cc4)CC3)n2)c1` [Compound 28, 1-(4-(3-methoxybenzyl)thiazol-2-yl)-4-tosylpiperazine] were 1890 nM and 165%.
Taken in the same sequence, the figures for `COc1cccc(Cc2csc(N3CCN(S(=O)(=O)c4ccc(C#N)cc4)CC3)n2)c1` [Compound 29, 4-(4-(4-(3-methoxybenzyl)thiazol-2-yl)piperazin-1-ylsulfonyl)benzonitrile] were 1270 nM and 42%.
As to `COc1cccc(Cc2csc(N3CCN(S(=O)(=O)c4ccc(F)cc4)CC3)n2)c1` [Compound 30, 1-(4-(3-methoxybenzyl)thiazol-2-yl)-4-(4-fluorophenylsulfonyl)piperazine], for the setting “Table 2”, the EC50 was found to be 405 nM and the “% inh. (percentage inhibition)” value came to 98%.
Taken in the same sequence, the figures for `COc1ccc(S(=O)(=O)N2CCC(c3nc(Cc4cccc(OC)c4)cs3)CC2)cc1` [Compound 31, 4-(4-(3-methoxybenzyl)thiazol-2-yl)-1-(4-methoxyphenylsulfonyl)piperidine] were 6.6 nM and 66%.
Taken in the same sequence, the figures for `COc1ccc(S(=O)(=O)N2CCN(Cc3nc(Cc4cccc(OC)c4)cs3)CC2)cc1` [Compound 32, 1-((4-(3-methoxybenzyl)thiazol-2-yl)methyl)-4-(4-methoxyphenylsulfonyl)piperazine] were 159 nM and 95%.
